The text below walks through data of patent US5866571A, “9-substituted 2-(2-n-alkoxyphenyl)-purin-6-ones” (Bayer Aktiengesellschaft, priority 1995, dated 1999).

Each structure is given as a SMILES string.

Holding throughout (type): biochemical
For assay [1], the system named is PDE I (Ca-calmodulin-stimulatable PDE I). Nature of the assay: Inhibition of the phosphodiesterases in vitro: PDE I. The settings on record: enzyme from porcine aorta or porcine brain; 1 μM CaCl2, 0.1 μM calmodulin; 10^-6 mol/l nucleotide, pH 7.5, 30 minutes. The method, then: (§1) Activity of the phosphodiesterases (PDE's)
(§2) The cGMP-stimulatable PDE II, the cGMP-inhibitable PDE III and the cAMP-specific PDE IV were isolated from either the porcine or the bovine myocardium. The Ca-calmodulin-stimulatable PDE I was isolated from porcine aorta or porcine brain. The cGMP-specific PDE V was obtained from porcine small intestine, porcine aorta and/or human blood platelets. Purification was carried out by anion exchange chromatography on MonoQ^R Pharmacia essentially by the method of M. Hoey and Miles D. Houslay, Biochemical Pharmacology, Volume 40, 193-202 (1990).
(§3) The enzyme activity is determined in a test batch of 100 μl in 20 mM Tris/HCl buffer of pH 7.5 which contains 5 mM MgCl2, 0.1 mg/ml of bovine serum albumin and either 800 Bq of ^3 HcAMP or ^3 HcGMP. The final concentration of the corresponding nucleotides is 10^-6 mol/l. The reaction is started by addition of the enzyme and the amount of enzyme is chosen such that about 50% of the substrate is reacted during the incubation time of 30 minutes. In order to test the cGMP-stimulatable PDE II, ^3 HcAMP is used as the substrate and 10^-6 mol/l of non-labelled cGMP is added to the batch. In order to test the Ca-calmodulin-dependent PDE I, 1 μM CaCl2 and 0.1 μM calmodulin are also added to the reaction batch. The reaction is stopped by addition of 100 μl of acetonitrile which contains 1 mM cAMP and 1 mM AMP. 100 μl of the reaction batch are separated on the […] and the cleavage products are determined quantitatively "on line" with a flow-through scintillation counter. The substance concentration at which the rate of reaction is reduced by 50% is measured.
(§4) Inhibition of the phosphodiesterases in vitro

Assay [2] deals with PDE V (cGMP-specific PDE V). Nature of the assay: Inhibition of the phosphodiesterases in vitro: PDE V. The settings on record: enzyme from porcine small intestine, porcine aorta and/or human blood platelets; 10^-6 mol/l nucleotide, pH 7.5, 30 minutes. As for the experimental part: as §1, §2, §3, §4
For assay [3], the system named is PDE II (cGMP-stimulatable PDE II). Put plainly: Inhibition of the phosphodiesterases in vitro: PDE II. The settings on record: enzyme from porcine or bovine myocardium; ^3HcAMP substrate plus 10^-6 mol/l non-labelled cGMP, pH 7.5, 30 minutes. The method, then:
as §1, §2, §3, §4

A word on the IC50: it is the midpoint of a concentration-inhibition curve. For the compound `CCCCCCC(C(C)O)n1cnc2c(=O)[nH]c(-c3ccccc3OCCC)nc21` (stereo not drawn) [Example 3, 9-(2-hydroxy-3-nonyl)-2-(2-n-propoxyphenyl)-purin-6-one], the half-maximal inhibitory concentration (IC50) in assay [1] turned out to be 50000 nM; in assay [2], 100 nM; in assay [3] it was 6000 nM.

On to `CCCOc1ccccc1-c1nc2c(ncn2C(CCc2ccccc2)C(C)O)c(=O)[nH]1` (stereo not drawn) [Example 4, 9-(2-hydroxy-5-phenyl-3-methyl)-2-(2-n-propoxyphenyl)-purin-6-one], for which the IC50 was 2000 nM in assay [1], 5000 nM in assay [2] and 1000 nM in assay [3].

With `CCCOc1ccccc1-c1nc2c(ncn2C(CCCc2ccccc2)C(C)O)c(=O)[nH]1` (stereo not drawn) [Example 5, 9-(2-hydroxy-6-phenyl-3-hexyl)-2-(2-n-propoxyphenyl)-purin-6-one], the IC50 in assay [1] stood at 1000 nM; in assay [2] it was 2000 nM; in assay [3], 500 nM.

For the compound `CCCOc1ccccc1-c1nc2c(ncn2C(C)CCCc2ccccc2)c(=O)[nH]1` (stereo not drawn) [Example 11], the results for the half-inhibitory concentration (IC50) in assay [1], in assay [2] and in assay [3] were 500 nM, 500 nM and 300 nM, respectively.

Consider `CCCCCCC(C(C)NC(C)=O)n1cnc2c(=O)[nH]c(-c3ccccc3OCCC)nc21` (stereo not drawn) [Example 37, 9-(2-Acetamido-3-nonyl)-2-(2-n-propoxyphenyl)-purin-6-one], for which the IC50 in assay [1] was 2000 nM; in assay [2], 1000 nM; in assay [3], 2000 nM.

`CCCCCCC(CC)n1cnc2c(=O)[nH]c(-c3cc(S(=O)(=O)N4CCOCC4)ccc3OCCC)nc21` (stereo not drawn) [Example 57]: the concentration for half-maximal inhibition (IC50) stood at 300 nM in assay [1], 100 nM in assay [2] and 300 nM in assay [3].
